Test results reported in patent publication US10342839B2, “Essential oil compositions and applications utilizing essential oils” (Ralco Nutrition, Inc., priority 2015, dated 2019).

Key:
[1] = Total ORAC over the five ROS; conditions: sum over the five oxygen species
Source text: (§1) Table 4 illustrates the ORAC scores for oregano essential oil (Origanum vulgare), thyme essential oil (Thymus vulgaris), cinnamaldehyde, and ActiFibe (50 wt. % larch arabinogalactan, 50 wt. % water) against 5 of the most common detrimental ROS: peroxyl radicals (RO2), hydroxyl radicals (OH^−1), peroxynitrate (ONO2^−1; H2O2+NO2^−1), superoxide anion (O2^−1), and singlet oxygen (O2). Results are expressed as trolox equivalents (TE/100 g) for each composition: […]

[2] = ORAC against hydroxyl radicals; conditions: trolox equivalents
Source text: as §1

[3] = ORAC against peroxyl radicals; conditions: trolox equivalents
Source text: as §1

[4] = ORAC against peroxynitrite; conditions: trolox equivalents
Source text: as §1

[5] = ORAC against singlet oxygen; conditions: trolox equivalents
Source text: as §1

[6] = ORAC against superoxide anion; conditions: trolox equivalents
Source text: as §1

[7] = 3-oil screening trial, 35 days, broilers with cocci stress; type: in vivo, Cobb 500 cockerels; conditions: 0.75 pounds per ton of feed
Source text: 640 1-day-old Cobb 500 cockerels were wing banded, weighed and randomly assigned to pens on the day of delivery. Each pen was 3 feet wide by 2 feet long by 2 feet tall holding 10 birds each; density was 0.6 sq. ft. per bird. The pens were contained within two battery cages in a single barn, each with battery cage having 4 levels and 8 pens per level for a total of 32 pens per battery. The experimental period was 35 days divided into three (3) feeding stages, starter, grower and finisher. Bird weight, average daily gain (ADG), average daily feed intake (ADFI), feed to gain (FG) and Coccidiosis oocyte counts were determined at each period. This study was performed with a large number of treatments in order to screen a number of possible treatments for further future investigations. […]

With `O=CC=Cc1ccccc1` [Cinnamaldehyde, cinnamaldehyde] the “Total ORAC” value [1] was 1,141,300 TE/100 g, the “Oxygen Radical Absorbance Capacity, Hydroxyl radical” value [2] was 49,300 TE/100 g and the “Oxygen Radical Absorbance Capacity, Peroxyl radical” value [3] was 18,800 TE/100 g. The “Oxygen Radical Absorbance Capacity, Peroxynitrite” value [4] was 3,500 TE/100 g, the “Oxygen Radical Absorbance Capacity, Singlet oxygen” value [5] was 90,800 TE/100 g and the “Oxygen Radical Absorbance Capacity, Superoxide anion” value [6] was 978,900 TE/100 g. For the same compound, the “Average bird weights at 35 days” value [7] was 2180.2 grams.
